Like-named read-outs stand apart in the source and are kept apart here.
Columns and labels:
[1] = test system: Key Broadleaf Weed and Crop Species; experiment: Post-emergent Test II herbicidal activity (Table 5); format: in vivo; conditions: post-emergence, 336 h, post-emergent, 14 days after application; for pest or weed control at 70 g/ha: 70 g ai/ha; for pest or weed control at 140 g/ha: 140 g ai/ha
Outline: (§1)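 Greenhouse-grown plants at first or second true leaf stage were sprayed post-emergence with compound in acetone/DMSO-based aqueous spray containing crop oil concentrate and surfactant, at 187 L/ha, highest rate plus ½× to 1/16× dilutions. After 14 d, injury was scored visually versus untreated plants, 0 (none) to 100% (complete kill).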

[2] = test system: Key Grass and Sedge Weeds as well as Grass Crops; experiment: Post-emergent Test II herbicidal activity (Table 6); format: in vivo; conditions: post-emergence, 336 h; for pest or weed control at 70 g/ha: application rate 70 g ai/ha; for pest or weed control at 140 g/ha: application rate 140 g ai/ha
Outline: as §1

[3] = ABUTH: velvetleaf (Abutilon theophrasti), read-out: Visual Growth Reduction (%) 14 Days After Application ABUTH
[4] = AMARE: redroot pigweed (Amaranthus retroflexus), read-out: Visual Growth Reduction (%) 14 Days After Application AMARE
[5] = BRSNN: oilseed-rape, canola (Brassica napus), read-out: Visual Growth Reduction (%) 14 Days After Application BRSNN
[6] = CHEAL: lambsquarters (Chenopodium album), read-out: Visual Growth Reduction (%) 14 Days After Application CHEAL
[7] = EPHHL: wild poinsettia (Euphorbia heterophylla), read-out: Visual Growth Reduction (%) 14 Days After Application EPHHL
[8] = HELAN: sunflower (Helianthus annuus), read-out: Visual Growth Reduction (%) 14 Days After Application HELAN
[9] = VIOTR: wild pansy (Viola tricolor), read-out: Visual Growth Reduction (%) 14 Days After Application VIOTR
[10] = Triticum aestivum, TRZSS (wheat), read-out: Visual Growth Reduction (%) 14 Days After Application, TRZSS
[11] = CYPES: yellow nutsedge (Cyperus esculentus), read-out: Visual Growth Reduction (%) 14 Days After Application, CYPES
[12] = DIGSA: crabgrass (Digitaria sanguinalis), read-out: Visual Growth Reduction (%) 14 Days After Application, DIGSA
[13] = ECHCG: barnyardgrass (Echinochloa crus-galli), read-out: Visual Growth Reduction (%) 14 Days After Application, ECHCG
[14] = ORYSA: rice (Oryza sativa), read-out: Visual Growth Reduction (%) 14 Days After Application, ORYSA
[15] = SETFA: giant foxtail (Setaria faberi), read-out: Visual Growth Reduction (%) 14 Days After Application, SETFA
[16] = SORVU: grain sorghum (Sorghum vulgare), read-out: Visual Growth Reduction (%) 14 Days After Application, SORVU
[17] = ZEAMX: maize, corn (Zea mays), read-out: Visual Growth Reduction (%) 14 Days After Application, ZEAMX

Nc1c(F)c(-c2cc(F)c(Br)cc2F)nc(C(=O)O)c1Cl [Compound 42, 4-amino-6-(4-bromo-2,5-difluorophenyl)-3-chloro-5-fluoropicolinic acid]
pest or weed control at 70 g/ha [1, 3]: 85 to 94% | pest or weed control at 140 g/ha [1, 3]: 95 to 100% | pest or weed control at 70 g/ha [1, 4]: 95 to 100% | pest or weed control at 140 g/ha [1, 4]: 95 to 100% | pest or weed control at 70 g/ha [1, 5]: 95 to 100% | pest or weed control at 140 g/ha [1, 5]: 95 to 100% | pest or weed control at 70 g/ha [1, 6]: 95 to 100% | pest or weed control at 140 g/ha [1, 6]: 95 to 100% | pest or weed control at 70 g/ha [1, 7]: 95 to 100% | pest or weed control at 140 g/ha [1, 7]: 95 to 100% | pest or weed control at 70 g/ha [1, 8]: 95 to 100% | pest or weed control at 140 g/ha [1, 8]: 95 to 100% | pest or weed control at 70 g/ha [1, 9]: 95 to 100% | pest or weed control at 140 g/ha [1, 9]: 95 to 100% | pest or weed control at 70 g/ha [2, 10]: 60 to 74% | pest or weed control at 140 g/ha [2, 10]: 75 to 84% | pest or weed control at 70 g/ha [2, 11]: 95 to 100% | pest or weed control at 140 g/ha [2, 11]: 95 to 100% | pest or weed control at 70 g/ha [2, 12]: 75 to 84% | pest or weed control at 140 g/ha [2, 12]: 85 to 94% | pest or weed control at 70 g/ha [2, 13]: 95 to 100% | pest or weed control at 140 g/ha [2, 13]: 95 to 100% | pest or weed control at 70 g/ha [2, 14]: 30 to 44% | pest or weed control at 140 g/ha [2, 14]: 30 to 44% | pest or weed control at 70 g/ha [2, 15]: 95 to 100% | pest or weed control at 140 g/ha [2, 15]: 95 to 100% | pest or weed control at 70 g/ha [2, 16]: 95 to 100% | pest or weed control at 140 g/ha [2, 16]: 95 to 100% | pest or weed control at 70 g/ha [2, 17]: 75 to 84% | pest or weed control at 140 g/ha [2, 17]: 60 to 74%

Nc1c(Cl)c(C(=O)O)nc(-c2ccc(Br)c(F)c2)c1Cl [Compound 43, 4-Amino-6-(4-bromo-3-fluorophenyl)-3,5-dichloropicolinic acid]
pest or weed control at 70 g/ha [1, 3]: 85 to 94% | pest or weed control at 140 g/ha [1, 3]: 85 to 94% | pest or weed control at 70 g/ha [1, 4]: 95 to 100% | pest or weed control at 140 g/ha [1, 4]: 95 to 100% | pest or weed control at 70 g/ha [1, 5]: 95 to 100% | pest or weed control at 140 g/ha [1, 5]: 95 to 100% | pest or weed control at 70 g/ha [1, 6]: 75 to 84% | pest or weed control at 140 g/ha [1, 6]: 75 to 84% | pest or weed control at 70 g/ha [1, 7]: 60 to 74% | pest or weed control at 140 g/ha [1, 7]: 60 to 74% | pest or weed control at 70 g/ha [1, 8]: 95 to 100% | pest or weed control at 140 g/ha [1, 8]: 95 to 100% | pest or weed control at 70 g/ha [1, 9]: 95 to 100% | pest or weed control at 140 g/ha [1, 9]: 95 to 100% | pest or weed control at 70 g/ha [2, 10]: 60 to 74% | pest or weed control at 140 g/ha [2, 10]: 60 to 74% | pest or weed control at 70 g/ha [2, 11]: 95 to 100% | pest or weed control at 140 g/ha [2, 11]: 95 to 100% | pest or weed control at 70 g/ha [2, 12]: 75 to 84% | pest or weed control at 140 g/ha [2, 12]: 75 to 84% | pest or weed control at 70 g/ha [2, 13]: 75 to 84% | pest or weed control at 140 g/ha [2, 13]: 60 to 74% | pest or weed control at 70 g/ha [2, 14]: 0 to 29% | pest or weed control at 140 g/ha [2, 14]: 30 to 44% | pest or weed control at 70 g/ha [2, 15]: 60 to 74% | pest or weed control at 140 g/ha [2, 15]: 60 to 74% | pest or weed control at 70 g/ha [2, 16]: 95 to 100% | pest or weed control at 140 g/ha [2, 16]: 95 to 100% | pest or weed control at 70 g/ha [2, 17]: 75 to 84% | pest or weed control at 140 g/ha [2, 17]: 75 to 84%
